One data set relates to tumor growth. The experiment in a line: MTT anticancer activity of Y, X and hydrolysis products (FIG. 4C). The class given is cell-based. On the procedure:
(§1) MTT Assay. The procedure for MTT assay followed the method described by Carmichael et al. (1987) with modifications. The cells were seeded into a 96-well plate at concentration of 10,000/well for HTB-9, HeLa, H460, HCT116, T98G and OVCAR-3), 15,000/well for DU145, MCF-7, HepG2 and U2OS), and 40,000/well for K562 for 24 hours before drug-treatment. The cells were then exposed to the drugs for 48 hours (72 hours for HepG2 and U2OS, and 96 hours for MCF-7). After the drug-treatment, MTT (0.5 mg/mL) was added to cultures and incubated for an hour. The formazan (product of the reduction of tetrazolium by viable cells) formed and was dissolved with DMSO and the O.D. at 490 nm, and was measured by an ELISA reader. The MTT level of the cells before drug-treatment was also measured (T0). The % cell-growth (% G) is calculated as: % G=(TD−T0/TC−T0)×100(1), where TC or TD represents O.D. readings of control or drug-treated cells. When T0>TD, then the cytotoxicity (LC) expressed as % of the control is calculated as: % LC=(TD−T0/T0)×100(2).
(A) Alkaline Hydrolysis of Xanifolia-Y: 20 mg of Xanifolia-Y was dissolved in 0.5 mL of 1M NaOH. The solution was incubated in an 80° C. water bath for 4 hours. It was cooled to room temperature before being neutralized with 0.5 mL 1 N HCl (adjusted pH to about 3). The mixture was extracted with 2 mL 1-butanol 3 times. The butanol fractions were collected and lyophilized. The hydrolyzed saponin was further purified with HPLC in a C-18 column eluted with 25% acetonitrile.
(B) Acid Hydrolysis of Xanifolia-Y: 15 mg Xanifolia-Y was dissolved in 1 mL of Methanol. 1 mL of 2N HCl was then added. The mixture was refluxed in an 80° C. water bath for 5 hours. The solution was then neutralized by adding 2 mL of 1N NaOH (to a final pH 3-4). The aglycone was then extracted with ethylacetate 3 mL×3. The extracts were collected and pooled. Further isolation of aglycone (sugar-removed Xanifolia-Y) was achieved by HPLC with isocratic elution of 80% acetonitrile.

Another data set deals with human red blood cells. The experiment in a line: Hemolytic activity. The class given is cell-based. Conditions: FIG. 3D. The protocol: Methods: • Human whole blood was obtained from the Houston Gulf Coast Blood Center. • Red blood cells were isolated by the following method: Human blood (in EDTA) was diluted 1:1 with PBS, underlay with 4 mL of Histopaque-1077 (SIGMA) and was centrifuged at 400 g for 30 min. • Red blood cells (RBC) were collected and washed three times with PBS. • 10% suspensions of RBC were prepared with PBS before use. • 50 μL of RBC suspension was added to 2 mL of saponins with different concentration. • The suspension was mixed by vortexing then left to sit at room temperature for 60 minutes. • The suspension was centrifuged at 3000 rpm for 5 min. Absorbance of the supernatant was measured at 540 nm.

In a further data set the test system is K562 cells membrane. The experiment in a line: EM study of membrane structure. Conditions: 20 uM, 60 min. The class given is cell-based, human. From the text: Xanifolia-Y has a potent hemolytic activity in red blood cells (FIG. 27). To study the effect of Xanifolia-Y on membrane structure, the morphology of cell membrane treated with Xanifolia-Y was examined with EM. […] Solvent DMSO and AKOH-Y (a derivative of Xanifolia-Y without the angeloyl group and it has no activity) served as controls. Cells were negative stained with 1% UAc and subsequently examined with EM.

Data set [1] relates to Fibronectin secretion from liver HepG2 cells. The experiment in a line: Fibronectin secretion (Western blot), HepG2 cells. The class given is cell-based, human. (Immunoblotting shows a protein as a band on a membrane.)
In data set [2] the test system is Fibronectin secretion from ES2 cells. The experiment in a line: Fibronectin secretion (Western blot), ES2 cells. The class given is cell-based, human. Conditions: for % inhibition of Fibronectin secretion: ES2 cells, 80 ug/ml.
The next data set relates to (Liver) HepG2. The experiment in a line: MTT assay HepG2. The class given is cell-based, human. Conditions: Homo sapiens, read-out: IC50. The protocol:
(§2) Cells. Human cancer cell lines were obtained from American Type Culture Collection: HTB-9 (bladder), HeLa-S3 (cervix), DU145 (prostate), H460 (lung), MCF-7 (breast), K562 (leukocytes), HCT116 (colon), HepG2 (liver), U2OS (bone), T98G (brain), SK-MEL-5 (Skin) and OVCAR-3 (ovary). The cells were grown in following culture media: HeLa-53, DU145, MCF-7, Hep-G2 and T98G are in MEN (Earle's salts); HTB-9, H460, K562 and OVCAR-3 in RPMI-1640; HCT-116 and U2OS in McCoy-5A. They are supplemented with 10% fetal calf serum, glutamine and antibiotics, and incubated in an incubator with 5% CO2 humidified at 37° C.
(§3) MTT Assay. The procedure for MTT assay followed the method described by Carmichael et al. (1987) with modifications. […] The formazan (product of the reduction of tetrazolium by viable cells) formed and was dissolved with DMSO and the O.D. at 490 nm, and was measured by an ELISA reader. The MTT level of the cells before drug-treatment was also measured (T0). The % cell-growth (% G) is calculated as: % G=(TD−T0/TC−T0)×100(1), where TC or TD represents O.D. readings of control or drug-treated cells. When T0>TD, then the cytotoxicity (LC) expressed as % of the control is calculated as: % LC=(TD−T0/T0)×100(2).
(Tetrazolium dyes change colour on reduction, which living cells bring about.)

Another data set concerns (lung)H460 cells. The experiment in a line: MTT assay H460. The class given is cell-based. The note with it: Homo sapiens, NCI-H460. The protocol:
as §2, §3

For a further data set, the system named is (Prostate) DU145. The experiment in a line: MTT assay DU145. The class given is cell-based, human. Conditions: Homo sapiens, DU-145, read-out: IC50. On the procedure: as §2, §3
The subject of data set [3] is Fibronectin secretion from bladder carcinoma cells (HTB-9). The experiment in a line: Fibronectin secretion (Western blot), HTB-9 cells. The class given is cell-based, human. Conditions: Homo sapiens, 10 ug/ml.
Data set [4] relates to (bladder)TB9 cells / HTB-9. The experiment in a line: MTT assay bladder cells. The class given is cell-based, human. Conditions: Homo sapiens; (bladder)TB9 cells; read-out: IC50. On the procedure:
as §2, §1

The next data set relates to (brain) T98G. The experiment in a line: MTT assay T98G. The class given is cell-based. Conditions: Homo sapiens. On the procedure: as §2, §3
Data set [5] relates to Fibronectin secretion from brain glioblastoma T98G cells. The experiment in a line: Fibronectin secretion (Western blot), T98G cells. The class given is cell-based, human. The note with it: Homo sapiens, T98G, 10 ug/ml.
For the next data set, the system named is ES2(ovarian) cells. The experiment in a line: MTT assay ES2. The class given is cell-based, human. The note with it: Homo sapiens, ES-2, ES2 cells; read-out: IC50.
The subject of a further data set is (Skin) SK-MELS. The experiment in a line: MTT assay SK-MEL-5. The class given is cell-based, human. Conditions: Homo sapiens, SK-MEL-5, read-out: IC50. On the procedure: as §2, §3
For another data set, the system named is (Breast)MCF7. The experiment in a line: MTT assay MCF7. The class given is cell-based, human. Conditions: Homo sapiens, read-out: IC50. On the procedure: as §2, §3
The test system of data set [6] is Fibronectin secretion from skin SK-Mel-5 cells. The experiment in a line: Fibronectin secretion (Western blot), SK-MEL-5 cells. The class given is cell-based, human. The note with it: Homo sapiens, 10 ug/ml.
In data set [7] the test system is Fibronectin secretion from lung carcinoma cells (H460). The experiment in a line: Fibronectin secretion (Western blot), H460 cells. The class given is cell-based, human. The note with it: Homo sapiens, NCI-H460, H460 cells, 10 ug/ml.
The subject of data set [8] is Leishmania Major (promastigotes). The experiment in a line: Cell growth of Leishmania parasites by MTT assay. The class given is cell-based. The note with it: read-out: IC50, cytotoxic to Leishmania Major (promastigotes). On the procedure:
Method: Leishmania parasites (Leishmania major: MRHO/SU/59/P/LV39) were grown in culture medium in a T75 flask at room temperature. Promastigotes of Leishmania major (approximately 40 million per ml) were used in the experiment. 1.2 ml cell culture was transferred to a well of the 24-wells plate. Saponin Y10 (0.2 ml in medium) with different concentrations (final 6.25-200 ug/ml) was added to culture and cells were grown for 1-5 days at room temperature. At the end of drug-treatment, 150 ul of MTT (5 mg/ml in PBS) was added to each well and incubated for 4 hours. Formazan formed in cells was dissolved with DMSO and the OD at 490 nm was determined by an ELISA reader.

In brackets after ≈: the same amount, converted by molar mass.

With `CC1(C)CC2C3=CCC4[C@@]5(C)CC[C@H](O[C@@H]6OC(C(=O)O)[C@@H](O)[C@@H](O[C@@H]7O[C@@H](CO)[C@@H](O)C7O)C6O[C@@H]6OC(CO)[C@H](O)[C@@H](O)C6O)C(C)(C)C5CC[C@@]4(C)[C@]3(C)[C@@H](O)[C@@H](O)[C@@]2(CO)[C@@H](O)[C@@H]1O` (stereo partly drawn) [AKOH-Y], in the data set with tumor growth, the “anticancer activity after alkaline hydrolysis” value is “lost anticancer activity”. For the same molecule, the “MTT activities of hydrolysed products of compound Y” value in the data set with tumor growth (FIG. 4C, 4D) is recorded as “lost MTT activities”. In addition, the anticancer activity result with tumor growth (FIG. 4C, even at 120 μg/ml) is on record as “completely abolishes its anticancer activity”; in the data set on tumor growth (even at 120 ug/ml), “completely abolishes its anticancer activity”. In the data set on human red blood cells, the “hemolytic activity of hydrolysed products of compound Y” value was “destroyed the hemolytic activity”. Also, the “membrane morphology (EM): patches of pits” value with K562 cells membrane was “not”. The “inhibition effect on Fibronectin secretion” value in data set [1] (HepG2 cells, 80 ug/ml) was “Minimum or No effect”. The “% inhibition of Fibronectin secretion” value in data set [2] and in [2] (listed as AKOH) was “no effect” throughout.
As usually defined, the IC50 is the midpoint of a concentration-inhibition curve. As a reminder, the inhibition is the change of the read-out against control, counted positive when it falls. In the case of `C/C=C(/C)C(=O)O[C@H]1[C@H](OC(=O)/C(C)=C\C)[C@@]23C(CC1(C)C)[C@]1(CCC4[C@@]5(C)CC[C@H](O)C(C)(C)C5CC[C@@]4(C)[C@]1(C)C[C@H]2O)O[C@@H]3O` (stereo partly drawn) [ACH-Mb5], the IC50 with (Liver) HepG2 came to 4 µg/mL (≈ 5.96 µM); in the data set on (lung)H460 cells it was 6.5 µg/mL (≈ 9.69 µM); with (Prostate) DU145, 6.4 µg/mL (≈ 9.54 µM); in [4], 5.7 µg/mL (≈ 8.5 µM); with (brain) T98G it was 6 µg/mL (≈ 8.94 µM); in the data set on ES2(ovarian) cells it was 8 µg/mL (≈ 11.9 µM). Besides, the IC50 was determined as 22 µg/mL (≈ 32.8 µM) with (Skin) SK-MELS and 13 µg/mL (≈ 19.4 µM) with (Breast)MCF7. The inhibition at 10 µg/mL in [3] was determined as 30%; in [5], 35%; in data set [1] (Homo sapiens, HepG2, HepG2 cells, 10 ug/ml) it was 25%; in data set [2] (Homo sapiens, ES-2, ES2 cells, 10 ug/ml), 30%; in data set [6], 20%; in data set [7], 22%.
As for `C/C=C(/C)C(=O)O[C@H]1[C@H](OC(=O)/C(C)=C\C)[C@@]2(CO)C(CC1(C)C)C1=CCC3[C@@]4(C)CC[C@H](O[C@@H]5OC(C(=O)O)[C@@H](O)[C@@H](O[C@@H]6O[C@@H](CO)[C@@H](O)C6O)C5O[C@@H]5OC(CO)[C@H](O)[C@@H](O)C5O)C(C)(C)C4CC[C@@]3(C)[C@]1(C)C[C@H]2O` (stereo partly drawn) [Xanifolia Y10, 3-O-[β-galactopyranosyl (1→2)]-α-arabinofuranosyl (1→3)-β-glucuronopyranosyl-21, 22-O-diangeloyl-3β, 16α, 21β, 22α, 28-pentahydroxyolean-12-ene], the IC50 in data set [8] is around 15 µg/mL (≈ 13.3 µM).

For the origin of these results see patent US10213451B2, “Methods and compounds for modulating the secretion or expression of adhesion proteins or angiopoietins of cells” (PACIFIC ARROW LIMITED, priority 2004, dated 2019).
